The test relates to Akt. The test is described as follows: Phosphorylation of Akt (PI3K activity marker, Fyn-dependent cascade). The class given is cell-based. Particulars: RBL-2H3 cells and BMMCs. The protocol: In mast cells, the signalling cascade Fyn/Gab2/PI3K gives rise to the activation of PI3K and the generation of PI-3,4,5-P3 recruiting a number of proteins containing a pleckstrin homology domain (PH), including Btk and PLC-γ on the plasma membrane^19.
• 1) Chemical products and antibodies. A chemical bank of 3000 molecules (a varied subset) was acquired from ChemBridge, Inc. (San Diego, Calif.). Stocks of solutions of small molecules were prepared at a rate of 10 mM in DMSO (dimethylsulphoxide), except for C-13 (methyl 2-{5-[(3-benzyl-4-oxo-2-thioxo-1,3-thiazolidin-5-ylidene)methyl]-2-furyl}benzoate, ChemBridge ID No. 6197026) prepared in DMF (dimethylformamide). Unless specified otherwise, all the reagents were supplied by Sigma. […] The binding of G4G11 with Syk was assessed by adding the 9E10 monoclonal antibody conjugated with HRP detecting the amino acid sequence EQKLISEEDLN of human c-myc protein located at the C-terminal end of the scFv fragment. To generate Syk mutants, targeted mutagenesis was used on GST:Syk 6-242 protein and the binding of G4G11 with the mutants was assessed in the presence of 5 μM of C-13. • 3) Cells, culture conditions and functional tests. […] The level of β-hexosaminidase released was measured 10 min later and the TNF-α titration was performed by means of a cytotoxicity test on L929 cells as described previously^10, 3 hours after stimulation. […]

The values that follow come from patent US9504676B2, “Molecules inhibiting a metabolic pathway involving the Syk protein tyrosine kinase and method for identifying said molecules” (CENTRE NATIONAL DE LA RECHERCHE SCIENTIFIQUE, priority 2008, dated 2016).

For the molecule `COC(=O)c1ccccc1-c1ccc(/C=C2/SC(=S)N(Cc3ccccc3)C2=O)o1` [Molecule C-13, methyl 2-{5-[(3-benzyl-4-oxo-2-thioxo-1,3-thiazolidin-5-ylidene)methyl]-2-furyl}benzoate], the “Fyn-dependent cascade (phosphorylation of Akt)” value is given as “did not affect”.
